One series concerns SW480 (Colon). The series can be described thus: killing of cultured cells, SW480. Also on record: key: “+” indicates that the cells were killed by treatment; “−” indicates that they were not; “+/−” indicates a slow marginal response seen only in a few special cases with fibroblasts experimentally transformed by introduction of the ras oncogene. Particulars: compound at two to fourfold above its threshold killing concentration. It is filed as cell-based. The text has this:
(§1) Table 1: Summarized are the responses of cells in culture to killing by example members of the family of blocked lipoate derivatives that are the object of this invention as well as one control compound (dihydroxyoctanoic acid). At right is indicated the specific cell line followed by the tissue of origin of the cell line. Across the top are listed the specific compounds tested. Each blocked lipoate derivative was used at two to fourfold above its threshold killing concentration. [These concentrations range form 0.15 mM (60 ug/ml or 60 mg/kg) to 2.5 mM (800 ug/ml or 800 mg/kg) (see EXAMPLE 11).] […] “+/−” indicates a slow marginal response seen only in a few special cases with fibroblasts experimentally transformed by introduction of the ras oncogene (EXAMPLE 10).
(§2) First, each cell type to be tested was plated at low densities in the wells of a standard 6×24 well tissue culture plate. (Multiple wells are seeded for each cell type.)
(§3) Second, the cells were allowed to grow to moderate densities. Transformed cells are in contact and non-transformed cells are contact-inhibited under these conditions.
(§4) Third, the lipoate derivatives to be tested were added to individual wells. In these experiments each compound was added at two to fourfold above the threshold killing concentration for cancer cells (EXAMPLE 11).
(§5) Fourth, cells were monitored over the next several days.

The next series relates to A549 (Lung). The series can be described thus: killing of cultured cells, A549. Also on record: key to cells killed by treatment: “+” indicates that the cells were killed by treatment; “−” indicates that they were not; “+/−” indicates a slow marginal response seen only in a few special cases with fibroblasts experimentally transformed by introduction of the ras oncogene. It is filed as cell-based.
Excerpt: as §1, §2, §3, §4, §5

In the next series the test system is MCF 7 (Breast). The series can be described thus: killing of cultured cells, MCF 7. As to conditions: compound at two to fourfold above its threshold killing concentration. The arrangement: key: “+” indicates that the cells were killed by treatment; “−” indicates that they were not; “+/−” indicates a slow marginal response seen only in a few special cases with fibroblasts experimentally transformed by introduction of the ras oncogene. It counts as cell-based.
Excerpt: as §1, §2, §3, §4, §5

The subject of a further series is HeLa (Cervix). The series can be described thus: killing of cultured cells, HeLa. It is filed as cell-based. The arrangement: key to cells killed by treatment: “+” indicates that the cells were killed by treatment; “−” indicates that they were not; “+/−” indicates a slow marginal response seen only in a few special cases with fibroblasts experimentally transformed by introduction of the ras oncogene.
Excerpt: as §1, §2, §3, §4, §5

The next series concerns B16 (Skin). The series can be described thus: killing of cultured cells, B16. It is filed as cell-based. Also on record: key: “+” indicates that the cells were killed by treatment; “−” indicates that they were not; “+/−” indicates a slow marginal response seen only in a few special cases with fibroblasts experimentally transformed by introduction of the ras oncogene. Particulars: compound at two to fourfold above its threshold killing concentration.
Excerpt: as §1, §2, §3, §4, §5

The test system of another series is RD (Embryo). As to the kind of experiment: killing of cultured cells, RD. It is filed as cell-based. Also on record: key to cells killed by treatment: “+” indicates that the cells were killed by treatment; “−” indicates that they were not; “+/−” indicates a slow marginal response seen only in a few special cases with fibroblasts experimentally transformed by introduction of the ras oncogene.
Excerpt: as §1, §2, §3, §4, §5

The test system of a further series is NIH 3T3 ras transformed. The series can be described thus: killing of cultured cells, ras-transformed NIH 3T3 (T24). It counts as cell-based. The arrangement: key to cells killed by treatment: “+” indicates that the cells were killed by treatment; “−” indicates that they were not; “+/−” indicates a slow marginal response seen only in a few special cases with fibroblasts experimentally transformed by introduction of the ras oncogene.
Excerpt: as §1, §2, §3, §4, §5
(§6) NIH-3T3 cells are relatively normal, noncancerous cells. However, if an activated allele of the ras oncogene is introduced into these cells they become highly malignant (cancerous) as assessed by several assays (REFERENCE).

The next series has as its system NIH 3T3 parental. The series can be described thus: killing of cultured cells, parental NIH 3T3. Particulars: 120 ug/ml, ca. 24 hours of treatment. It counts as cell-based.
Excerpt: as §1, §2
Second, the cells were allowed to grow to moderate densities. Transformed cells are in contact and non-transformed cells are contact-inhibited under these conditions. […]
as §5, §6

A further series relates to MDCK (Kidney). The series can be described thus: killing of cultured cells, MDCK. It is filed as cell-based. As to conditions: 120 ug/ml, ca. 48 hours.
Excerpt: as §1, §2, §3, §4, §5

A short description of series [1]: nonspecific toxicity by intraperitoneal injection. Particulars: C57/BL, mouse, in vivo, ip. As to the method:
(§7) (All studies described in this section were carried out by intraperitoneal (IP) injection into C57/BL mice.)

Another series relates to C57/BL mice. The series can be described thus: nonspecific toxicity by intraperitoneal injection. Particulars: mouse, in vivo, ip. The procedure:
as §7

Series [2] concerns B-16 melanoma. As to the kind of experiment: B-16 system, cells injected IP. As to conditions: 100 mg/kg IP twice a day, 16 days, B-16 cells IP in C57/BL mice. It is filed as in vivo, mouse. The source says: (§8) The B-16 melanoma strain was introduced either subcutaneously or intraperitoneally into individuals of the C57/BL syngeneic mouse strain (7). When left untreated such mice develop massive tumors in the immediate area of injection as well as secondary metastases throughout the animal—including in the liver and the lungs. These malignant growths result in the early death of the animals. Moreover, the resulting malignant growths are made up of darkly pigmented malignant melanocytes—making their assessment convenient and highly reliable. We will henceforth refer to this as the “B-16 system”.
First, a group of mice were injected IP with B-16 cells. The injected group was divided at random into two equal subsets. One subset (experimental) was injected IP twice a day with 100 mg/kg of the bis-benzoyl lipoate member of the compound class in 200 ul of 10% ethanol. [See EXAMPLES 3, 8 and 11 for descriptions of bis-benzoyl lipoate.] The second subset (control) was injected with 200 ul of 10% ethanol alone.
After 16 days, the animals were examined—including by dissection where appropriate. The control animals had numerous, massive IP tumor masses.

Series [3] relates to B-16 melanoma. The series can be described thus: B-16 system, subcutaneous tumors. It counts as in vivo, mouse. Particulars: 50 mg/kg IP twice daily plus twice daily injection directly into the tumor mass.
Excerpt: as §8
Second, a group of animals were injected at a subcutaneous site with B-16 cells. […] As this time, one group oL animals (experimentals) began a twice-daily series of injections of the bis-acetyl lipoate derivative (100 mg/kg in 100 ul of isotonic saline) and a second set (controls) of corresponding injections of the saline solvent alone. [See EXAMPLES 2, 8 and 11 for the details of bis-acetyl lipoate derivative.]
Third, in several animals subcutaneous tumors were produced as in the preceding paragraph. After the tumors had grown to visible, palpable size, these animals received both a twice daily IP (systemic) dose of 50 mg/kg of bis-benzoyl lipoate as well as a twice daily direct injection a second dose of the same volume directly into the tumor mass.

As usually defined, the LD50 is the dose expected to kill half of the subjects tested.

For the compound `O=C(O)CCCCC(CCSC(=O)c1ccccc1)SC(=O)c1ccccc1` (stereo not drawn) [bis-benzoyl lipoate, 6,8-bisbenzoylmercaptooctanoic acid], the “cells killed by treatment” value in the series on SW480 (Colon) was “+”; with A549 (Lung) (A549, Lung, compound at two to fourfold above its threshold killing concentration), “+”; in the series on MCF 7 (Breast), “+”; with HeLa (Cervix) (Cervix, compound at two to fourfold above its threshold killing concentration) it was “+”; with B16 (Skin), “+”; in the series on RD (Embryo) (RD, Embryo, compound at two to fourfold above its threshold killing concentration) it was “+”. In addition, the “cells killed by treatment” value in the series with NIH 3T3 ras transformed (NIH 3T3 ras transformed, compound at two to fourfold above its threshold killing concentration) is reported as “+”. For the same compound, the “cell killing, lung cancer cells (FIG. 1)” value in the series on A549 (Lung) (120 ug/ml, ca. 48 hours) is “efficiently killed”. Further, in the series with HeLa (Cervix) (conditions of FIG. 3), the “time by which all cancer cells are killed” value was in the range of 48 to 60 h. For the same compound, the “cell killing, embryonic cancer cells (FIG. 1)” value with RD (Embryo) (120 ug/ml, ca. 48 hours) is recorded as “efficiently killed”. In addition, the “cancerous (transformed) cells killed (FIG. 2)” value with NIH 3T3 ras transformed (120 ug/ml, 24 hours of treatment, T24 ras-transformed NIH3T3) is “ca. 50%”. The “killing of transformed cells (FIG. 2)” value with NIH 3T3 ras transformed (120 ug/ml, ca. 48 hours of treatment) was “almost entirely irradicated”. Moreover, in the series on NIH 3T3 parental, the “effect on noncancerous parental NIH3T3 cells (FIG. 2)” value was “unaffected”. Moreover, in the series on MDCK (Kidney), the “effect on normal (non-cancerous) kidney epithelial cell line (FIG. 1)” value is on record as “not detectably affected”. The compound further displayed an LD50 in series [1] of roughly 1000 mg/kg. The maximum well-tolerated dose entry in the series on C57/BL mice was “ca. 500 mg/kg”. In the series with B-16 melanoma [2], the “tumor mass relative to the control sample” value was 30-50%. Moreover, the “response of subcutaneous tumor” value in the series on B-16 melanoma [3] is recorded as “especially robust response”.

Source of the values: US6951887B2 (The Research Foundation of State University of New York, priority 1998, dated 2005).
